ChEMBL document CHEMBL1149220, “1-(2-Naphthyl)-1H-pyrazole-5-carboxylamides as potent factor Xa inhibitors. Part 2: A survey of P4 motifs” (Bioorg Med Chem Lett, 2004)
pIC50, pKi: −log10 of the molar value.

Assays:
Coagulation factor X [1] = biological target: T1, Coagulation factor X (Homo sapiens, UniProt P00742); experiment: Inhibitory concentration against human Coagulation factor X
Coagulation factor X [2] = biological target: T1, Coagulation factor X; experiment: Binding affinity against Coagulation factor X
Coagulation factor X [3] = biological target: T1, Coagulation factor X; experiment: In vitro anticoagulant potency measured in human plasma by thrombin generation (TG) assay expressed as 2 x TG; type: functional, cell-free
[4] = Volume of distribution in rat; type: ADME, organism-based; conditions: in vivo
[5] = Clearance rate in rat; type: ADME, organism-based; conditions: in vivo
[6] = Bioavailability in rat; type: ADME, organism-based; conditions: in vivo
[7] = Half-life determined in rat; type: ADME, organism-based; conditions: in vivo
[8] = biological target: T2, Vitamin K-dependent protein C (Homo sapiens, UniProt P04070); experiment: Inhibitory concentration of compound was determined against activated protein C (aPC)
Kallikrein-1 = Kallikrein-1 (Homo sapiens, UniProt P06870); experiment: Inhibitory concentration of compound was determined against kallikrein
Plasminogen = experiment: Inhibitory concentration of compound was determined against Plasmin
Prothrombin = Prothrombin (Homo sapiens, UniProt P00734); experiment: Inhibitory concentration of compound was determined against thrombin
[9] = biological target: Tissue-type plasminogen activator (Homo sapiens, UniProt P00750); experiment: Inhibitory concentration against tissue type plasminogen activator
Serine protease 1 = Serine protease 1 (Homo sapiens, UniProt P07477); experiment: Inhibitory concentration of compound was determined against trypsin
[10] = biological target: T2, Vitamin K-dependent protein C; experiment: Inhibitory concentration of compound was determined against activated protein C

Sequence of Tissue-type plasminogen activator (P00750 whole entry): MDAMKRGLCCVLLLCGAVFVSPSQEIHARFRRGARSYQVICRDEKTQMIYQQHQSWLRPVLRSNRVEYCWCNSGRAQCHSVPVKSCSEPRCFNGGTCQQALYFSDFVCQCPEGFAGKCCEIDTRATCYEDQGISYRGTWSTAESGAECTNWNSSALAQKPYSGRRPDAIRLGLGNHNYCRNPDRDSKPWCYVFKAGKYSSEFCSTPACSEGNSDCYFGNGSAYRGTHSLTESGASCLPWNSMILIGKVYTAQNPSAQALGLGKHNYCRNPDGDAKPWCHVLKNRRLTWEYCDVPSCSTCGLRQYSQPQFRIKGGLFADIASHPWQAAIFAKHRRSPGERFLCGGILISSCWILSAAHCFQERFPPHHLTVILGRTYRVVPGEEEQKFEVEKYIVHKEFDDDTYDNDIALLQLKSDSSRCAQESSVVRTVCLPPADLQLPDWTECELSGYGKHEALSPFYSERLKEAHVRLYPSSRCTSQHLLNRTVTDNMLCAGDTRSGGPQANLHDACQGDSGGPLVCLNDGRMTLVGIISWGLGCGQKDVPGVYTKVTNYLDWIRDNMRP
Sequence of Plasminogen (Q01177 97-581 limits assumed): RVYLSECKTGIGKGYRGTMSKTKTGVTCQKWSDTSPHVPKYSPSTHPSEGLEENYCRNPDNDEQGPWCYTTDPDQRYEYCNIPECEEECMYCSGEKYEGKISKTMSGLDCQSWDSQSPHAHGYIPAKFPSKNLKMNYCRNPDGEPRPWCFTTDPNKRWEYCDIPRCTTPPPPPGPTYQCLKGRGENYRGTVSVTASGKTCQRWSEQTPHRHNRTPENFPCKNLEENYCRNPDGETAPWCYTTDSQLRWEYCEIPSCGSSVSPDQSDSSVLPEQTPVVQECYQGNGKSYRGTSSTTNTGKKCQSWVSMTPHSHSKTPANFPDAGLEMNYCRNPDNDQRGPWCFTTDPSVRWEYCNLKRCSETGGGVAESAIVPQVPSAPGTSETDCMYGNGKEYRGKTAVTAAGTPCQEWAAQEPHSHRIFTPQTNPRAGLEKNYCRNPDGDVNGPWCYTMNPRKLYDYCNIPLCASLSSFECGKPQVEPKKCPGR
Sequence of Plasminogen (Q01177 582-812 limits assumed): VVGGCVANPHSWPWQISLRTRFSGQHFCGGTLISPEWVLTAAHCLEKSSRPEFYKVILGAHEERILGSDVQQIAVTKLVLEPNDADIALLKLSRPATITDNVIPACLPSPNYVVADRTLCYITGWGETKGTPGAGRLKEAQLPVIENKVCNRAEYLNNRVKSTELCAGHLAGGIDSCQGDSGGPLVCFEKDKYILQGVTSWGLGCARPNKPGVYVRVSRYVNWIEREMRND
Sequence of Serine protease 1 (P07477 whole entry): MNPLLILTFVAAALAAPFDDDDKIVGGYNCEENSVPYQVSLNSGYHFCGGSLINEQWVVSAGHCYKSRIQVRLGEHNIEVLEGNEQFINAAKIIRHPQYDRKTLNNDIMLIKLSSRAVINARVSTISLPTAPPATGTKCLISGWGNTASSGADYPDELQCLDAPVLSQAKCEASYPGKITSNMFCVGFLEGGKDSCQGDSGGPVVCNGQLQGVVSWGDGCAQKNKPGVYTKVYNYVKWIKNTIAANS
Sequence of Kallikrein-1 (P06870 whole entry): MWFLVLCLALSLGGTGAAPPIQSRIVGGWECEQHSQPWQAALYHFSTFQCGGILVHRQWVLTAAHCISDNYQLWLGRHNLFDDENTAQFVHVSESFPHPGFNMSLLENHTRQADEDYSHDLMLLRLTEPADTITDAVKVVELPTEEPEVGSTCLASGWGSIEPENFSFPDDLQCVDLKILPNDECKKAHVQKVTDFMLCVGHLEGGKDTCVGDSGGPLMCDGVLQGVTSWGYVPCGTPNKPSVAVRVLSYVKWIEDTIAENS
T2 sequence (P04070 43-197 limits assumed): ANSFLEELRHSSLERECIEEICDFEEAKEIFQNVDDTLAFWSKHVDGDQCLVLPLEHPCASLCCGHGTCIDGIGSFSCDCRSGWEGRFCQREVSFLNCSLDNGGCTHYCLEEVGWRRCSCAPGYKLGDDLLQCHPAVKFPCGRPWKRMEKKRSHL
T2 sequence (P04070 212-461 limits assumed): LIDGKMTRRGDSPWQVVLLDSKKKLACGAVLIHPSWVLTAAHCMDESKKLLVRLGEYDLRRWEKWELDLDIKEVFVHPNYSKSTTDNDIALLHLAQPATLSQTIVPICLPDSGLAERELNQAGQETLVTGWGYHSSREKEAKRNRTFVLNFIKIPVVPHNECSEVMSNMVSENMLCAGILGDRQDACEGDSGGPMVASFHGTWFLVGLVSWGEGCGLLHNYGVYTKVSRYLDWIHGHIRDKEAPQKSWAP
T1 sequence (P00742 41-179 limits assumed): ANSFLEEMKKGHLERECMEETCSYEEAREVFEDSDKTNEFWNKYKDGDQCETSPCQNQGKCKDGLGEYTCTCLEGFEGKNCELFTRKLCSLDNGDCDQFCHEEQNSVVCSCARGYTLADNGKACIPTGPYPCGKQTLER
T1 sequence (P00742 235-488 limits assumed): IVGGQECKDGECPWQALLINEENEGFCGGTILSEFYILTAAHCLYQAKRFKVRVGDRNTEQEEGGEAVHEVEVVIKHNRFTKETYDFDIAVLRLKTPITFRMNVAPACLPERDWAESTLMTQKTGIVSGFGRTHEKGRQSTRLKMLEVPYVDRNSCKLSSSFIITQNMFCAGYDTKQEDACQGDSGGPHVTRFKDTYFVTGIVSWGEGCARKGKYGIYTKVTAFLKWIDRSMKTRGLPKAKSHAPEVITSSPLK

Compound	pIC50 (Coagulation factor X [1])	pKi (Coagulation factor X [2])	Activity (Coagulation factor X [3])	also measured
Cc1cc(C(=O)Nc2ccc(-n3ccnc3CN(C)C)cc2)n(-c2ccc3cc(Cl)ccc3c2)n1	8.10	8.55	> 5 µM	–
Cc1cc(C(=O)Nc2ccc(-c3ccccc3S(N)(=O)=O)cn2)n(-c2ccc3cc(Cl)ccc3c2)n1	8.30	8.72	2 µM	–
Cc1cc(C(=O)Nc2ccc(-c3ccccc3CN)cc2)n(-c2ccc3cc(Cl)ccc3c2)n1	7.41	–	–	–
Cc1cc(C(=O)Nc2ccc(-c3ccccc3C(=N)N(C)C)cc2)n(-c2ccc3cc(Cl)ccc3c2)n1	7.59	–	–	–
Cc1cc(C(=O)Nc2ccc(-c3cccc(C(=N)N)c3)cc2)n(-c2ccc3cc(Cl)ccc3c2)n1	7.12	–	–	–
Cc1cc(C(=O)Nc2ccc(-c3ccccc3S(N)(=O)=O)cc2F)n(-c2ccc3cc(Cl)ccc3c2)n1	8.52	8.47	> 5 µM	–
Cc1cc(C(=O)Nc2ccc(-c3ccccc3CN(C)C)cc2F)n(-c2ccc3cc(Cl)ccc3c2)n1	8.70	8.82	1.7 µM	Vd [4]: 22.1 L/kg; clearance [5]: 35.7 mL/min/kg; bioavailability [6]: 35.2%; half-life [7]: 7.2 h; pIC50 [8]: < 5.00; pIC50 (Kallikrein-1): 5.01; pIC50 (Plasminogen): < 5.00; pIC50 (Prothrombin): 5.26; pIC50 [9]: < 5.00; pIC50 (Serine protease 1): < 5.00
Cc1cc(C(=O)Nc2ccc(N3CCNCCC3=O)cc2F)n(-c2cc3ccccc3cc2S(C)(=O)=O)n1	6.17	–	–	–
Cc1cc(C(=O)Nc2ccc(-c3ccccc3CN(C)C)cc2F)n(-c2cc3ccccc3cc2S(C)(=O)=O)n1	8.15	8.62	0.64 µM	Vd [4]: 27.3 L/kg; clearance [5]: 114 mL/min/kg; bioavailability [6]: 18%; half-life [7]: 2.8 h; pIC50 [8]: < 5.00; pIC50 (Kallikrein-1): < 5.00; pIC50 (Plasminogen): < 5.00; pIC50 (Prothrombin): < 5.00; pIC50 [9]: < 5.00; pIC50 (Serine protease 1): < 5.00
Cc1cc(C(=O)Nc2ccc(-c3ccccc3CN)cc2F)n(-c2cc3ccccc3cc2F)n1	8.70	8.62	2.2 µM	Vd [4]: 11 L/kg; clearance [5]: 51.8 mL/min/kg; bioavailability [6]: 22.8%; half-life [7]: 2.5 h; pIC50 [8]: < 5.00; pIC50 (Kallikrein-1): < 5.00; pIC50 (Plasminogen): < 5.00; pIC50 (Prothrombin): < 5.00; pIC50 [9]: < 5.00; pIC50 (Serine protease 1): < 5.00
Cc1cc(C(=O)Nc2ccc(-c3ccccc3S(N)(=O)=O)cn2)n(-c2cc3ccccc3cc2F)n1	7.09	–	–	–
Cc1cc(C(=O)Nc2ccc(N3CCOCCC3=O)cc2F)n(-c2cc3ccccc3cc2S(C)(=O)=O)n1	7.64	–	–	–
Cc1cc(C(=O)Nc2ccc(-n3ccnc3CN)cc2F)n(-c2cc3ccccc3cc2F)n1	7.89	–	–	–
Cc1cc(C(=O)Nc2ccc(-c3ccccc3CN(C)C)cc2)n(-c2ccc3cc(Cl)ccc3c2)n1	8.30	8.74	2 µM	–
Cc1cc(C(=O)Nc2ccc(-n3nccn3)cc2)n(-c2ccc3cc(Cl)ccc3c2)n1	5.68	–	–	–
Cc1cc(C(=O)Nc2ccc(N3CCCCC3=O)cc2)n(-c2ccc3cc(Cl)ccc3c2)n1	8.52	8.96	> 5 µM	–
Cc1cc(C(=O)Nc2ccc(-c3ccccc3S(N)(=O)=O)cc2F)n(-c2cc3ccccc3cc2S(C)(=O)=O)n1	8.30	8.96	4.5 µM	–
Cc1cc(C(=O)Nc2ccc(-n3ccnc3CN(C)C)cc2F)n(-c2ccc3cc(Cl)ccc3c2)n1	–	–	3 µM	–
Cc1cc(C(=O)Nc2ccc(-c3cccc(CN)c3)cc2)n(-c2ccc3cc(Cl)ccc3c2)n1	7.15	–	–	–
Cc1cc(C(=O)Nc2ccc(-n3ccnc3)cc2)n(-c2ccc3cc(Cl)ccc3c2)n1	6.97	–	–	–
Cc1cc(C(=O)Nc2ccc(N3CCOCC3=O)cc2)n(-c2ccc3cc(Cl)ccc3c2)n1	9.00	9.52	3 µM	–
Cc1cc(C(=O)Nc2ccc(N3CCOCC3=O)cc2F)n(-c2cc3ccccc3cc2S(C)(=O)=O)n1	8.70	9.10	0.44 µM	Vd [4]: 0.8 L/kg; clearance [5]: 16.8 mL/min/kg; bioavailability [6]: 19.3%; half-life [7]: 0.5 h; pIC50 [10]: < 5.00; pIC50 (Kallikrein-1): < 5.00; pIC50 (Plasminogen): < 5.00; pIC50 (Prothrombin): < 5.00; pIC50 [9]: < 5.00; pIC50 (Serine protease 1): < 5.00
Cc1cc(C(=O)Nc2ccc(-n3ccnc3CN(C)C)cc2F)n(-c2cc3ccccc3cc2S(C)(=O)=O)n1	8.10	8.49	1.7 µM	–
Cc1cc(C(=O)Nc2ccc(-c3ccccc3S(N)(=O)=O)cc2)n(-c2ccc3cc(Cl)ccc3c2)n1	–	–	> 5 µM	–
Cc1cc(C(=O)Nc2ccc(N3CCN(C)CC3)cc2)n(-c2ccc3cc(Cl)ccc3c2)n1	6.78	–	–	–
Cc1cc(C(=O)Nc2ccc(-n3ccnc3C)cc2)n(-c2ccc3cc(Cl)ccc3c2)n1	8.10	8.54	> 5 µM	–
Cc1cc(C(=O)Nc2ccc(-c3ccccc3S(N)(=O)=O)cn2)n(-c2cc3ccccc3cc2S(C)(=O)=O)n1	7.34	–	–	–
